Measured values reported in patent US20260224588A1, “BENZODIAZEPINONE-DERIVED INHIBITORS OF EGFR AND HER2” (The Research Foundation for the State University of New York, priority 2023, published 2026).

How the values were obtained:
Test in all cases: KINOMEscan
Format in all cases: binding
Conditions in all cases: 1 μM of compound 4; read-out: POC
[1] = target: T1, EGFR(L747-S752del + P753S) (Homo sapiens, UniProt P00533, DEL747-752/P753S)
T1 construct: purchased Eurofins DiscoverX (KINOMEscan service)

[2] = target: T2, FLT3(D835Y) (Homo sapiens, UniProt P36888, D835Y)
T2 construct: purchased Eurofins DiscoverX Corporation

[3] = target: IRAK4 (Homo sapiens, UniProt Q9NWZ3)
[4] = target: T3, PAK6 (Homo sapiens, UniProt Q9NQU5)
T3 construct: purchased Eurofins DiscoverX Corporation (KINOMEscan)

[5] = target: T4, EPHB3 (Homo sapiens, UniProt P54753)
T4 construct: purchased Eurofins DiscoverX (KINOMEscan service)

[6] = target: INSR (Homo sapiens, UniProt P06213)
[7] = target: T5, EGFR(G719S) (Homo sapiens, UniProt P00533, G719S)
T5 construct: purchased Eurofins DiscoverX (KINOMEscan service)

[8] = target: T6, TLK2 (Homo sapiens, UniProt Q86UE8)
T6 construct: purchased Eurofins DiscoverX Corporation

[9] = target: T7, YSK4 (Homo sapiens, UniProt Q56UN5)
T7 construct: purchased Eurofins DiscoverX

[10] = target: T8, SIK (Homo sapiens, UniProt P57059)
T8 construct: purchased Eurofins DiscoverX (KINOMEscan service)

[11] = target: T9, RPS6KA5(Kin.Dom.2-C-terminal) (Homo sapiens, UniProt O75582)
T9 construct: RPS6KA5(Kin.Dom.2-C-terminal); purchased Eurofins DiscoverX Corporation (KINOMEscan screening service)

[12] = target: KIT(V559D + T670I) (Homo sapiens, UniProt P10721, T670I/V559D)
[13] = target: PIK3C2B (Homo sapiens, UniProt O00750)
[14] = target: PRKCD (Homo sapiens, UniProt Q05655)
[15] = target: T10, SNRK (Homo sapiens, UniProt Q9NRH2)
T10 construct: purchased Eurofins DiscoverX (KINOMEscan service)

[16] = target: CTK (Homo sapiens, UniProt P42679)
[17] = target: T11, EGFR(L747-E749del + A750P) (Homo sapiens, UniProt P00533, A750P/DEL747-749)
T11 construct: purchased Eurofins DiscoverX (KINOMEscan service)

[18] = target: CAMK1G (Homo sapiens, UniProt Q96NX5)
[19] = target: T12, SGK (Homo sapiens, UniProt O00141)
T12 construct: purchased Eurofins DiscoverX (KINOMEscan service)

[20] = target: JAK3(JH1domain-catalytic) (Homo sapiens, UniProt P52333)
[21] = target: ARK5 (Homo sapiens, UniProt O60285)
[22] = target: T13, FGFR3(G697C) (Homo sapiens, UniProt P22607, G697C)
T13 construct: purchased Eurofins DiscoverX Corporation

[23] = target: T14, RSK2(Kin.Dom.1-N-terminal) (Homo sapiens, UniProt P51812)
T14 construct: RSK2(Kin.Dom.1-N-terminal); purchased Eurofins DiscoverX Corporation (KINOMEscan screening service)

[24] = target: DYRK2 (Homo sapiens, UniProt Q92630)
[25] = target: T15, TESK1 (Homo sapiens, UniProt Q15569)
T15 construct: purchased Eurofins DiscoverX Corporation

[26] = target: T16, FLT3(D835H) (Homo sapiens, UniProt P36888, D835H)
T16 construct: purchased Eurofins DiscoverX Corporation

[27] = target: T17, PAK3 (Homo sapiens, UniProt O75914)
T17 construct: purchased Eurofins DiscoverX Corporation (KINOMEscan)

[28] = target: MKK7 (Homo sapiens, UniProt O14733)
[29] = target: CHEK2 (Homo sapiens, UniProt O96017)
[30] = target: CDK4 (Homo sapiens, UniProt P11802)
[31] = target: T18, ERBB3 (Homo sapiens, UniProt P21860)
T18 construct: purchased Eurofins DiscoverX Corporation

[32] = target: PKNB(M. tuberculosis) (Mycobacterium tuberculosis, UniProt P9WI81)
[33] = target: MET(Y1235D) (Homo sapiens, UniProt P08581, Y1235D)
[34] = target: NDR1 (Homo sapiens, UniProt Q15208)
[35] = target: PIP5K2C (Homo sapiens, UniProt Q8TBX8)
[36] = target: PIKFYVE (Homo sapiens, UniProt Q9Y2I7)
[37] = target: MTOR (Homo sapiens, UniProt P42345)

T18 sequence (P21860 20-1342): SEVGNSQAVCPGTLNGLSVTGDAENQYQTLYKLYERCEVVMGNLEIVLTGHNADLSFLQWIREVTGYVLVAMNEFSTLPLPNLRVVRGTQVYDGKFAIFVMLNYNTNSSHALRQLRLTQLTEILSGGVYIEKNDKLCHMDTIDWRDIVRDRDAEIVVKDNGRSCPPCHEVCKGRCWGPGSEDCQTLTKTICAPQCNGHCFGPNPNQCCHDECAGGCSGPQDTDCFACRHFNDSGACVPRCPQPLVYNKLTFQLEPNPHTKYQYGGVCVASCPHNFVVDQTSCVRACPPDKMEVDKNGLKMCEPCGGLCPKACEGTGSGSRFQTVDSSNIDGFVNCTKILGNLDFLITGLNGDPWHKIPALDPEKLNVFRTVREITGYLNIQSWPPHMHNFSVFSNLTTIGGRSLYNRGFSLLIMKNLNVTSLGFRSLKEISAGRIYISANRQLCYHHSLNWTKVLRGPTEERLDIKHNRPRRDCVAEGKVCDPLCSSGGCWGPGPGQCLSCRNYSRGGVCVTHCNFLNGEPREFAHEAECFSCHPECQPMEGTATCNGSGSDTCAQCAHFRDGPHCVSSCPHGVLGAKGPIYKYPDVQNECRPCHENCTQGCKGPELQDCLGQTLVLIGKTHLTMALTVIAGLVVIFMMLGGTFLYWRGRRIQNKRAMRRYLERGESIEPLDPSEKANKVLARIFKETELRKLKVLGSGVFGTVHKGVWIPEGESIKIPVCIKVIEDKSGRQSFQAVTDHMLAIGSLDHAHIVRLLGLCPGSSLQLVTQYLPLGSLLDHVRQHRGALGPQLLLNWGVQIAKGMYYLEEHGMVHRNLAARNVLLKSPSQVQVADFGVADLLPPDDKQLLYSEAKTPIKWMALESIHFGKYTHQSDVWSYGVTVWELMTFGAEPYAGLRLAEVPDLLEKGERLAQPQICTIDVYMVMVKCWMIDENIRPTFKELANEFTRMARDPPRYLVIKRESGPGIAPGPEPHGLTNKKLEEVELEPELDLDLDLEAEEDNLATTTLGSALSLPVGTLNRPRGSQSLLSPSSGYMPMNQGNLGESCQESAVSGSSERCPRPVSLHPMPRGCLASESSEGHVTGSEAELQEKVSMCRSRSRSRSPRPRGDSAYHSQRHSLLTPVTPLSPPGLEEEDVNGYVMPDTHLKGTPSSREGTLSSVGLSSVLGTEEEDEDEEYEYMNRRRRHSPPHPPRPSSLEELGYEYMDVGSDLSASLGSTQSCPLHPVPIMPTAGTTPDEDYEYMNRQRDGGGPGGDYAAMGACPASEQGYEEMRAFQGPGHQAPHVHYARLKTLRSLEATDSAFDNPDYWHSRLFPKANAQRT
T1 sequence (P00533 with tags, fused parts or gaps DEL747-752/P753S): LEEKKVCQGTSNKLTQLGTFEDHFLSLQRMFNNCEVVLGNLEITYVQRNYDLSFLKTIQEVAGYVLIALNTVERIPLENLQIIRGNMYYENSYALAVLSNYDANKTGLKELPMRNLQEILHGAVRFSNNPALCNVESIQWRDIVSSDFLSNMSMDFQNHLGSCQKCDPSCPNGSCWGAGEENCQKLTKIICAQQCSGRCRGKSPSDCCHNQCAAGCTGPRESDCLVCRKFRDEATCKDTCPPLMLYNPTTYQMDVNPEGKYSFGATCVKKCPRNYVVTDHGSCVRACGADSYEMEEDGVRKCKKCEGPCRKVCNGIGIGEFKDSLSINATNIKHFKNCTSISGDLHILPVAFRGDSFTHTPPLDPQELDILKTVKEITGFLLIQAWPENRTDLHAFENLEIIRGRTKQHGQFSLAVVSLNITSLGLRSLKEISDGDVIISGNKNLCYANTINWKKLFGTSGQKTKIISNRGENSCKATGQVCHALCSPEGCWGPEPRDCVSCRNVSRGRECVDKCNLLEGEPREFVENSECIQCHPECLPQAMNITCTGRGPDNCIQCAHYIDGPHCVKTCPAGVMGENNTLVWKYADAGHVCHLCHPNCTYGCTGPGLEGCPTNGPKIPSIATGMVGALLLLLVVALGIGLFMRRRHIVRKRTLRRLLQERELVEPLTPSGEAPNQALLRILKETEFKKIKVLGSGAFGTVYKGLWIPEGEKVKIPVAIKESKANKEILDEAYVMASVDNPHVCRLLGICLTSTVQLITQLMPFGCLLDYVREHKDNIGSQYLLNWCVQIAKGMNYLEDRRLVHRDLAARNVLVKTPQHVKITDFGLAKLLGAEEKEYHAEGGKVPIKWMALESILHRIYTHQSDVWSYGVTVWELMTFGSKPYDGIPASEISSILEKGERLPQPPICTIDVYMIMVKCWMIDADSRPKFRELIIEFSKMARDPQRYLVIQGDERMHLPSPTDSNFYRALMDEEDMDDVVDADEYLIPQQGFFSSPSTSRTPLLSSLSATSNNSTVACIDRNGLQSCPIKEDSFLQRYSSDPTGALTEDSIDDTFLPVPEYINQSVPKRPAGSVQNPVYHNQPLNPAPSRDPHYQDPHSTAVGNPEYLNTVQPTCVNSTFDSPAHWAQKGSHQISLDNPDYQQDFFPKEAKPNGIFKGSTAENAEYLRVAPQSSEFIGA
Sequence of JAK3(JH1domain-catalytic) (P52333 822-1111 limits assumed): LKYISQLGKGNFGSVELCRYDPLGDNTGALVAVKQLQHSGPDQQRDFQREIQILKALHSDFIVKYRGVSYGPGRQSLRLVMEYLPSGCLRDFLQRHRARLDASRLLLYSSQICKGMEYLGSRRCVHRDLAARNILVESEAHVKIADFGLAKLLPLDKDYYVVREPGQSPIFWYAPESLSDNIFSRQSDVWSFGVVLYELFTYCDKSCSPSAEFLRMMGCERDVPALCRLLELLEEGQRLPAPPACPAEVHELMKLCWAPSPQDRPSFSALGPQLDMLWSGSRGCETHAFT
Sequence of CAMK1G (Q96NX5 whole entry): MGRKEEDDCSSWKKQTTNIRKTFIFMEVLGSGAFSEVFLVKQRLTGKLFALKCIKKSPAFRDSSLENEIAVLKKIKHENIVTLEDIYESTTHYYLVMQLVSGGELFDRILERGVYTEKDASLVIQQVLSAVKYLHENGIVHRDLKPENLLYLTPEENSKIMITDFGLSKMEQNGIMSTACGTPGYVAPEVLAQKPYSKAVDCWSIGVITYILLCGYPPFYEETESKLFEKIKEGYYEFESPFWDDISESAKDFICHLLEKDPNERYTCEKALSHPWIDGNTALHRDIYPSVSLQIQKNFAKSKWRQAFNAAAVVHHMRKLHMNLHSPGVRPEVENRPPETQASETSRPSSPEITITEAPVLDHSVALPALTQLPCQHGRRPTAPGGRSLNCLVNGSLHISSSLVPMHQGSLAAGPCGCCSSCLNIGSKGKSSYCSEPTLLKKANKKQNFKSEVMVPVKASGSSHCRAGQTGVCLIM
T7 sequence (Q56UN5 whole entry): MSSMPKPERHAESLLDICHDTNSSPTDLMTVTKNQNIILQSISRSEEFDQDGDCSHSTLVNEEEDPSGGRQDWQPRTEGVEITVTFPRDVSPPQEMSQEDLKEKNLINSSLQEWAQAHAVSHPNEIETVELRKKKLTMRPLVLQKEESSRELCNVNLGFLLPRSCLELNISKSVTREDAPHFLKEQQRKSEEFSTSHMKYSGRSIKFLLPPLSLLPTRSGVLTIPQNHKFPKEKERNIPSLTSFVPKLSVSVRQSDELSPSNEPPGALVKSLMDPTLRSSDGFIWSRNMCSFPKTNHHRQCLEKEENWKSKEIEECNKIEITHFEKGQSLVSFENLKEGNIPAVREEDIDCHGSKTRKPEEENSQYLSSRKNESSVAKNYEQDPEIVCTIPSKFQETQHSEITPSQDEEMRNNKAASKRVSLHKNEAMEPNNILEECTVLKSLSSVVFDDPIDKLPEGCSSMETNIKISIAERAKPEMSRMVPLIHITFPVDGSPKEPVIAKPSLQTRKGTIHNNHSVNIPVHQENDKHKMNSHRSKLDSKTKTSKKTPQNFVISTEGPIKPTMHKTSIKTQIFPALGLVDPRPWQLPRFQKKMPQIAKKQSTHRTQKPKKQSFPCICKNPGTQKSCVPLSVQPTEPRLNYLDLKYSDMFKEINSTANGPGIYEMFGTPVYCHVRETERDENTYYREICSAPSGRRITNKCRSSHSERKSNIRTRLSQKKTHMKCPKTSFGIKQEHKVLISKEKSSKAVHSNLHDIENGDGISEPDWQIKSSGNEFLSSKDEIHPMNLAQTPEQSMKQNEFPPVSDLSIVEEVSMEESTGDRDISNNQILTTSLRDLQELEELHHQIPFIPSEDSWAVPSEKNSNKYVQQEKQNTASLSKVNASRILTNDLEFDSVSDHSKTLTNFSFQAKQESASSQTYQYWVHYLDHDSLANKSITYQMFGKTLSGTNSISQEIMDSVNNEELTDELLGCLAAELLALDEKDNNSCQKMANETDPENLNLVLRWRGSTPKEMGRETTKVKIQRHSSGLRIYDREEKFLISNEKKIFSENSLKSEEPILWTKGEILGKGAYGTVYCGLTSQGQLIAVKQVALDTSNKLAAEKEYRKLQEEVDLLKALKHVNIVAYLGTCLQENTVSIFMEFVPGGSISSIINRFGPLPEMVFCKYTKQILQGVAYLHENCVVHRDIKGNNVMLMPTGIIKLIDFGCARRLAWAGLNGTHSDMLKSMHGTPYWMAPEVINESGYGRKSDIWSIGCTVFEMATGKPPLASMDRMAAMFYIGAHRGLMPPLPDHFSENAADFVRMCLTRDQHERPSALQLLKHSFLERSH
T9 sequence (O75582 426-687 limits assumed): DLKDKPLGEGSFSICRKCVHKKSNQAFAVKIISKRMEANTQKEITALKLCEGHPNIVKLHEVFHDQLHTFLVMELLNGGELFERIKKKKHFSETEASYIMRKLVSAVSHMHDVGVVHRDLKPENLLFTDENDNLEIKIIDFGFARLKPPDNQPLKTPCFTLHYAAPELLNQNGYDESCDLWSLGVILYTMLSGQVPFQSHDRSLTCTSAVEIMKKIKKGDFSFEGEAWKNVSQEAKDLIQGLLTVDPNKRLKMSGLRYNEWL

Question: C=CC(=O)Nc1ccc(OC)c(Nc2cc(-c3[nH]c(CC)nc3-c3cccc(NC(=O)c4cccc5c4NC(=O)c4ccccc4N5)c3)ccn2)c1 [Compound 4, N-(3-(5-(2-((5-Acrylamido-2-methoxyphenyl)amino)pyridin-4-yl)-2-ethyl-1H-imidazol-4-yl)phenyl)-11-oxo-10,11-dihydro-5H-dibenzo[b,e][1,4]diazepine-9-carboxamide] was tested. Which remaining binding at 1 µM [1] did it give?
Answer: 16%

Question: What about the remaining binding at 1 µM [2] of the same molecule?
Answer: 96%

Question: And the remaining binding at 1 µM [3]?
Answer: 43%

Question: What about the remaining binding at 1 µM [4] of the same molecule?
Answer: 93%

Question: And the remaining binding at 1 µM [5]?
Answer: 100%

Question: And the remaining binding at 1 µM [6]?
Answer: 97%

Question: What about the remaining binding at 1 µM [7] of the same molecule?
Answer: 13%

Question: What about the remaining binding at 1 µM [8] of the same molecule?
Answer: 87%

Question: And the remaining binding at 1 µM [9]?
Answer: 88%

Question: And the remaining binding at 1 µM [10]?
Answer: 100%

Question: What about the remaining binding at 1 µM [11] of the same molecule?
Answer: 100%

Question: What about the remaining binding at 1 µM [12] of the same molecule?
Answer: 95%

Question: What about the remaining binding at 1 µM [13] of the same molecule?
Answer: 74%

Question: And the remaining binding at 1 µM [14]?
Answer: 55%

Question: What about the remaining binding at 1 µM [15] of the same molecule?
Answer: 82%

Question: What about the remaining binding at 1 µM [16] of the same molecule?
Answer: 54%

Question: And the remaining binding at 1 µM [17]?
Answer: 8%

Question: What about the remaining binding at 1 µM [18] of the same molecule?
Answer: 100%

Question: And the remaining binding at 1 µM [19]?
Answer: 86%

Question: And the remaining binding at 1 µM [20]?
Answer: 100%

Question: What about the remaining binding at 1 µM [21] of the same molecule?
Answer: 100%

Question: And the remaining binding at 1 µM [22]?
Answer: 100%

Question: What about the remaining binding at 1 µM [23] of the same molecule?
Answer: 100%

Question: And the remaining binding at 1 µM [24]?
Answer: 75%

Question: And the remaining binding at 1 µM [25]?
Answer: 94%

Question: And the remaining binding at 1 µM [26]?
Answer: 92%

Question: And the remaining binding at 1 µM [27]?
Answer: 70%

Question: And the remaining binding at 1 µM [28]?
Answer: 31%

Question: And the remaining binding at 1 µM [29]?
Answer: 87%

Question: What about the remaining binding at 1 µM [30] of the same molecule?
Answer: 100%

Question: And the remaining binding at 1 µM [31]?
Answer: 84%

Question: And the remaining binding at 1 µM [32]?
Answer: 97%

Question: And the remaining binding at 1 µM [33]?
Answer: 97%

Question: And the remaining binding at 1 µM [34]?
Answer: 73%

Question: And the remaining binding at 1 µM [35]?
Answer: 66%

Question: And the remaining binding at 1 µM [36]?
Answer: 94%

Question: What about the remaining binding at 1 µM [37] of the same molecule?
Answer: 100%
